Each structure is given as a SMILES string.

Series [1] relates to Haemonchus contortus. Description: Anthelmintic activity against fourth stage larvae of Haemonchus contortus assessed as midbody width of L4 larvae measured after 7 days by microscopic analysis (reference value: 16.3+/-1.5 uM). In kind it is functional. The conditions noted are these: time 7 day.
For series [2], the system named is Human immunodeficiency virus 1. Briefly: Reversal of HIV-1 latency infected in GFP-fused human J-Lat 10.6 cells assessed as inhibition of 50 nM PMA-induced HIV production by flow cytometry analysis. In kind it is functional, organism-based. The conditions noted are these: Human immunodeficiency virus 1, J-Lat 10.6.
In series [3] the test system is Haemonchus contortus. Description: Anthelmintic activity against Haemonchus contortus assessed as inhibition of L4 development at 50 uM measured at 168 hrs by microscope based analysis relative to control. In kind it is functional.
Series [4] concerns Haemonchus contortus. Description: Anthelmintic activity against third stage larvae of Haemonchus contortus assessed as reduction in larval motility at 50 uM measured at 168 hrs by microscope based analysis relative to control. It is filed as functional. Set-up: scale not given: the % may be the effect or the level left.
The test system of series [5] is Haemonchus contortus. Description: Anthelmintic activity against fourth stage larvae of Haemonchus contortus assessed as induction of skinny phenotype measured after 7 days. In kind it is functional, organism-based. The conditions noted are these: 168 h.
Series [6] has as its system Human immunodeficiency virus 1. Briefly: Reversal of HIV-1 latency infected in GFP-fused human J-Lat 10.6 cells assessed as inhibition of 160 nM PMA-induced HIV production at 100 ug/ml incubated for 24 hrs by flow cytometry analysis relative to control. It is filed as functional. The conditions noted are these: Human immunodeficiency virus 1, J-Lat 10.6.
For series [7], the system named is Plasmodium falciparum. Description: Antimalarial activity against chloroquine sensitive Plasmodium falciparum 3D7 assessed as parasite growth inhibition at 80 uM incubated for 72 hrs by DAPI staining method. It is filed as functional.
The nature of series [8]: Cytotoxicity against HEK293 cells assessed as inhibition of cell growth at 80 uM incubated for 72 hrs by alamar blue dye based fluorescence assay relative to control. It is filed as toxicity. The conditions noted are these: human.
The subject of series [9] is Haemonchus contortus. Briefly: Anthelmintic activity against fourth stage larvae of Haemonchus contortus assessed as induction of skinny phenotype at 100 uM measured after 7 days relative to control. In kind it is functional. The conditions noted are these: time 7 day.
Series [10] relates to Human immunodeficiency virus 1. Briefly: Reversal of HIV-1 latency infected in GFP-fused human J-Lat 10.6 cells assessed as inhibition of 160 nM PMA-induced HIV production incubated for 24 hrs by flow cytometry analysis. In kind it is functional, organism-based. The conditions noted are these: Human immunodeficiency virus 1, J-Lat 10.6, 24 h.
Series [11] concerns Haemonchus contortus. Description: Anthelmintic activity against Haemonchus contortus assessed as induction of skinny phenotype at 50 uM measured at 168 hrs by microscope based analysis. In kind it is functional.
In series [12] the test system is Haemonchus contortus. Briefly: Anthelmintic activity against third stage larvae of Haemonchus contortus assessed as reduction in larval motility measured at 168 hrs by microscope based analysis. It is filed as functional, organism-based.
The test system of series [13] is Plasmodium falciparum. Briefly: Antimalarial activity against multidrug resistant Plasmodium falciparum Dd2 assessed as parasite growth inhibition at 80 uM incubated for 72 hrs by DAPI staining method. It is filed as functional.

In the case of `COC(=O)c1cc2c(c(OC)c1OC)[C@H](C)C[C@@H](O)[C@H]2[C@@H](C)CCC=C(C)C`, the Activity in series [1] was 8.8 µM; in series [4], 28.3%; in series [9], 78.4%; in series [11], 59.1%. For the same compound, the figures for the EC50 in series [2] and in series [10] were 38.3 µM and 146 µM, respectively. Moreover, the inhibition at 50 µM in [3] came out at 5.3%. Besides, the values for the concentration for half-maximal inhibition (IC50) in [5] and in series [12] were 13.5 µM and 4.9 µM, respectively. Further, the inhibition at 100 µg/mL in series [6] worked out at 66.5%. The inhibition at 80 µM in series [7] and in [13] was > 41% throughout. Further, in series [8], the inhibition at 72 h, 80 µM was determined as 4%.

The values are drawn from ChEMBL document CHEMBL5252581, “Using a Bioactive Eremophila-Derived Serrulatane Scaffold to Generate a Unique Carbamate Library for Anti-infective Evaluations” (J Nat Prod, 2023).
